Results on two molecules are retold here after patent publication EP4685153A1 (priority 2023, dated 2024).

Structures are written as SMILES. Residues, ends and D or L forms follow the SMILES beside them. *: point of attachment. Succinyl(4-O-cholesteryl) = CC(C)CCC[C@@H](C)[C@H]1CC[C@H]2[C@@H]3CC=C4C[C@@H](OC(=O)CCC(=O)*)CC[C@]4(C)[C@H]3CC[C@]12C

This experiment has as its system SARS-CoV-2 D614G mutant strain. The note with it: 48 h.

`CC[C@H](C)[C@H](NC(=O)[C@H](CCCCN)NC(=O)[C@H](CCCCN)NC(=O)[C@H](CCC(=O)O)NC(=O)[C@H](CC(C)C)NC(=O)[C@H](CCC(=O)O)NC(=O)[C@H](CCC(=O)O)NC(=O)[C@H](CC(C)C)NC(=O)[C@H](CCC(=O)O)NC(=O)[C@H](CCCCN)NC(=O)[C@H](CCC(=O)O)NC(=O)[C@H](Cc1ccc(O)cc1)NC(=O)[C@H](CCC(=O)O)NC(=O)[C@H](CCC(=O)O)NC(=O)[C@H](Cc1ccc(O)cc1)NC(=O)[C@H](CCC(=O)O)NC(C)=O)C(=O)N[C@@H](CCC(=O)O)C(=O)N[C@@H](CCC(=O)O)C(=O)N[C@@H](CC(C)C)C(=O)N[C@@H](CC(C)C)C(=O)N[C@@H](CCCCN)C(=O)N[C@@H](CCCCN)C(=O)N[C@@H](C)C(=O)N[C@@H](CCC(=O)O)C(=O)N[C@@H](CCC(=O)O)C(=O)N[C@@H](CCC(N)=O)C(=O)N[C@@H](CCC(N)=O)C(=O)N[C@@H](CCCCN)C(=O)N[C@@H](CCCCN)C(=O)N[C@@H](CC(N)=O)C(=O)N[C@@H](CCC(=O)O)C(=O)N[C@@H](C)C(=O)N[C@@H](C)C(=O)N[C@@H](C)C(=O)N[C@@H](CCCCN)C(=O)N[C@@H](CCCCNC(=O)CCC(=O)O[C@H]1CC[C@@]2(C)C(=CC[C@H]3[C@@H]4CC[C@H]([C@H](C)CCCC(C)C)[C@@]4(C)CC[C@@H]32)C1)C(N)=O` [LP-127] (Ac-EYEEYEKELEELEKKIEELLKKAEEQQKKNEAAAKK(Succinyl(4-O-cholesteryl))-NH2) registered an IC50 of 0.0274 µM.

In the case of `CC[C@H](C)[C@H](NC(=O)[C@H](CCCCN)NC(=O)[C@H](CCCCN)NC(=O)[C@H](CCC(=O)O)NC(=O)[C@H](CC(C)C)NC(=O)[C@H](CCC(=O)O)NC(=O)[C@H](CCC(=O)O)NC(=O)[C@H](CC(C)C)NC(=O)[C@H](CCC(=O)O)NC(=O)[C@H](CCCCN)NC(=O)[C@H](CCC(=O)O)NC(=O)[C@H](Cc1ccc(O)cc1)NC(=O)[C@H](CCC(=O)O)NC(C)=O)C(=O)N[C@@H](CCC(=O)O)C(=O)N[C@@H](CCC(=O)O)C(=O)N[C@@H](CC(C)C)C(=O)N[C@@H](CC(C)C)C(=O)N[C@@H](CCCCN)C(=O)N[C@@H](CCCCN)C(=O)N[C@@H](C)C(=O)N[C@@H](CCC(=O)O)C(=O)N[C@@H](CCC(=O)O)C(=O)N[C@@H](CCC(N)=O)C(=O)N[C@@H](CCC(N)=O)C(=O)N[C@@H](CCCCN)C(=O)N[C@@H](CCCCN)C(=O)N[C@@H](CC(N)=O)C(=O)N[C@@H](CCC(=O)O)C(=O)N[C@@H](C)C(=O)N[C@@H](C)C(=O)N[C@@H](C)C(=O)N[C@@H](CCCCN)C(=O)N[C@@H](CCCCNC(=O)CCC(=O)O[C@H]1CC[C@@]2(C)C(=CC[C@H]3[C@@H]4CC[C@H]([C@H](C)CCCC(C)C)[C@@]4(C)CC[C@@H]32)C1)C(N)=O` [LP-128] (Ac-EYEKELEELEKKIEELLKKAEEQQKKNEAAAKK(Succinyl(4-O-cholesteryl))-NH2), the IC50 turned out to be 0.0251 µM.
